From US10376520B2, “Methods for the treatment of cardiovascular disorders” (Galapagos NV, priority 2015, dated 2019)

System: Japanese and Caucasian healthy subjects
Test: [HDL] determination, Study 3 (healthy volunteers)
Assay type: in vivo, human
Details: 200 mg q.d.
Protocol: Randomized, double-blind, placebo-controlled study for the assessment of safety, tolerability, pharmacokinetics, and pharmacodynamics, of multiple oral doses of Compound 1 (dosed as a [Compound 1:HCl:3H2O]) in Japanese and Caucasian healthy subjects.
Randomized, double-blind, placebo-controlled, single center, sequential design study.
Compound 1 (dosed as a [Compound 1:HCl:3H2O]) is administered for 10 days as oral film-coated tablet (25 and 100 mg and matching placebos). Placebo are provided as a matching tablet.
The study drug is ingested with 240 mL water after a standardized breakfast on Days 2-9. On PK days (Day 1 and Day 10) the study drug is administered in a fasted state (subjects will receive lunch 4 h after dosing on Day 1 and Day 10).
10 Japanese subjects (6 active, 4 placebo) and 10 Caucasian subjects (6 active, 4 placebo) will receive once daily an oral dose of 200 mg Compound 1 (dosed as a [Compound 1:HCl:3H2O]) or matching placebo as two tablets of 100 mg or matching placebo for 10 days. For practical reasons, these subjects may be split over separate groups, each group consisting of an equal number of Japanese and Caucasian Compound 1 (dosed as a [Compound 1:HCl:3H2O]) treated subjects and Japanese and Caucasian placebo subjects.
This assay relies on a homogeneous enzymatic colorimetric test. In the presence of magnesium ions, dextran sulfate selectively forms water-soluble complexes with LDL, VLDL and chylomicrons which are resistant to PEG-modified enzymes.
The cholesterol concentration of [HDL]-cholesterol is determined enzymatically by cholesterol esterase and cholesterol oxidase coupled with PEG to the amino groups (approx. 40%).
In the presence of peroxidase, the hydrogen peroxide generated reacts with 4-amino-antipyrine and Sodium N-(2-hydroxy-3-sulfopropyl)-3,5-dimethoxyaniline (HSDA) to form a purple-blue dye. The color intensity of this dye is directly proportional to the cholesterol concentration and is measured photometrically.
Human serum and plasma samples [HDL] determination was done on a Roche/Hitachi Cobas c 701/702 system which automatically calculate the analyte concentration of each sample. Samples containing precipitates are centrifuged before performing the assay.

SMILES: O=C(Nc1nc2cccc(-c3ccc(CN4CCS(=O)(=O)CC4)cc3)n2n1)C1CC1 [Compound 1, cyclopropanecarboxylic acid {5-[4-(1,1-dioxo-thiomorpholin-4-ylmethyl)-phenyl]-[1,2,4]triazolo[1,5-a]pyridin-2yl}-amide]
- [HDL] % Mean % variation vs baseline 10 days (Caucasian): 6%
- [HDL] levels (Caucasian, day 0): 1.5 mmol/L
- [HDL] levels (Caucasian, day 5): 1.5 mmol/L
- [HDL] levels (Caucasian, day 10): 1.6 mmol/L
- [HDL] levels (Caucasian, day 17): 1.6 mmol/L
- [HDL] % Mean % variation vs baseline 10 days (Japanese): 15.6%
- [HDL] levels (Japanese, day 0): 1.3 mmol/L
- [HDL] levels (Japanese, day 5): 1.3 mmol/L
- [HDL] levels (Japanese, day 10): 1.5 mmol/L
- [HDL] levels (Japanese, day 17): 1.4 mmol/L
